Drawing on patent publication US20050020588A1, “Cysteine protease inhibitors” (priority 1999, published 2005), this text covers Ki and bioavailability for 21 compounds.

For data set [1], the target named is Mammalian Cathepsin S (Homo sapiens, UniProt P25774). Put plainly: Ki competitive inhibition, mammalian cathepsin S. The format is biochemical. How it is done: (§1) Cathepsin S (Mammalian, murine and rat)
(§2) Assays were performed in 100 mM sodium phosphate, 100 mM NaCl, pH 6.5 (buffer) in white 384 well plates (Coming Costar). Eight inhibitors were assayed per plate.
(§3) Inhibitor dilutions were performed on a 96 well V-bottomed polypropylene plate (Corning Costar). 100 μl of buffer was placed in wells 2-5 and 7-12 of rows A, B, C and D. Sufficient of each inhibitor at 10 mM in DMSO was placed into wells A1-D1 and A6-D6 to give the desired final concentration when the volume in the well was made up to 200 μl with buffer. Column 1 was made up to 200 μl with buffer, mixed by aspirating and dispensing 100 μl in the well, and 100 μl transferred to column 2. The pipette tips were changed and the mixing and transferral repeated to column 5. This process was repeated for columns 6-10.
(§4) Substrate dilutions were performed on a 96 deep well polypropylene plate (Beckman Coulter). 280 μl of buffer was placed in wells B-H of columns 1 and 2.70 μl of 10 mM boc-Val-Leu-Lys-AMC was placed in A1 and A2. 2×250 μl of buffer was added to wells A1 and A2, mixed by aspirating and dispensing 280 μl in the well, and 280 μl transferred to row B. The pipette tips were changed and the process repeated down the plate to row H.
(§5) Column 1 of the substrate dilution plate was distributed at 10 μl per well into alternate rows beginning at row A. Column 2 was distributed to alternate rows beginning at row B. Row A of the inhibitor dilution plate was distributed at 10 μl per well to alternate rows and columns starting at A1. Row B was distributed to alternate rows and columns starting at A2. Row C was distributed to alternate rows and columns starting at B1 and row D was distributed to alternate rows and columns starting at B2. The assay was started by the addition of 30 μl per well of 20 nM cathepsin S in buffer containing 10 mM 2-mercaptoethanol.
(§6) Data were saved as text files and imported into Excel. The initial rates were determined by linear regression and then fitted to the competitive inhibition equation using SigmaPlot.

Data set [2] has as its target Murine Cathepsin S (Mus musculus, UniProt O70370). Put plainly: Ki competitive inhibition, murine cathepsin S. The format is biochemical. How it is done:
as §1, §2, §3, §4, §5, §6

In data set [3] the target is Rat Cathepsin S (Rattus norvegicus, UniProt Q02765). Put plainly: Ki competitive inhibition, rat cathepsin S. The format is biochemical. The method, then:
as §1, §2, §3, §4, §5, §6

Data set [4] deals with Mammalian Cathepsin L (Homo sapiens, UniProt P07711). Nature of the data set: Ki competitive inhibition, cathepsin L. The format is biochemical. The method, then: as §6
Sequence of Mammalian Cathepsin L (P07711 114-333): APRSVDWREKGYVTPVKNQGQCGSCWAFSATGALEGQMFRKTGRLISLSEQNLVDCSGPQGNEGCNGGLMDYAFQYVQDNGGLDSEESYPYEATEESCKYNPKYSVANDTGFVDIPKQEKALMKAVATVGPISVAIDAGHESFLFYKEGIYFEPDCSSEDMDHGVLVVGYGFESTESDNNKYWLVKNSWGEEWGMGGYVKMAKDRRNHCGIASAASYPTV
(§7) Assays were performed essentially as above. For cathepsin L, the buffer used was 100 mM sodium acetate, 1 mM EDTA, pH 5.5 and the substrate was D-Val-Leu-Lys-AMC with a highest concentration of 100 μM. For cathepsin K, the buffer used was 100 mM MES/Tris, 1 mM EDTA, pH 7.0 and the substrate was D-Ala-Leu-Lys-AMC with a highest concentration of 250 μM.

Data set [5] concerns the target T1, Mammalian Cathepsin K (Homo sapiens, UniProt P43235).
T1 sequence (P43235 115-329): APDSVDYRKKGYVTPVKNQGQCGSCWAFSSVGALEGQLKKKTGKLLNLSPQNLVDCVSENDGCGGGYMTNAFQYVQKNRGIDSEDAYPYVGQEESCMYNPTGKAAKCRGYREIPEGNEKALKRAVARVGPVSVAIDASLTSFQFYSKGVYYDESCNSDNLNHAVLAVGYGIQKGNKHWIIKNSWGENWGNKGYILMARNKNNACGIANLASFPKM
Nature of the data set: Ki competitive inhibition, cathepsin K. It counts as biochemical. The method, then: as §7
Convenient assays for cathepsin K arere carried out using human recombinant enzyme. Standard assay conditions for the determination of kinetic constants used a fluorogenic peptide substrate, typically H-D-Ala-Leu-Lys-AMC, and were determined in either 100 mM Mes/Tris, pH 7.0 containing 1 mM EDTA and 10 mM 2-mercaptoethanol or 100 mM Na acetate, pH 5.5 containing 5 mM EDTA and 20 mM cysteine. The enzyme concentration used was 5 nM. The stock substrate solution was prepared at 10 mM in DMSO. Screens were carried out at a fixed substrate concentration of 60 μM and detailed kinetic studies with doubling dilutions of substrate from 250 μM. The total DMSO concentration in the assay was kept below 3%. All assays were conducted at ambient temperature. Product fluorescence (excitation at 390 nm, emission at 460 nm) was monitored with a Labsystems Fluoroskan Ascent fluorescent plate reader. Product progress curves were generated over 15 minutes following generation of AMC product.
Potential inhibitors are screened using the above assay with variable concentrations of test compound. Reactions were initiated by addition of enzyme to buffered solutions of substrate and inhibitor. Ki values were calculated according to equation 1 [formula] where ν0 is the velocity of the reaction, V is the maximal velocity, S is the concentration of substrate with Michaelis constant of KM, and I is the concentration of inhibitor. Determination of Falcipain 2 Proteolytic Catalytic Activity

Data set [6] in a line: Oral bioavailability in mice. The following applies: mouse, in vivo, dosed i.v. and orally at 10 mg/kg to mice, read-out: oral bioavailability % (F).
Where [7] appears, read: Table 1, first line of each CAP-P2 block, read-out: Ki competitive inhibition measurements vs Mammalian Cathepsin S.
Where [8] appears, read: Table 2, Human, read-out: Ki (μM) Human, Mammalian Cathepsin S.
Setting [9] is: Table 1, second line of each CAP-P2 block, read-out: Ki competitive inhibition measurements vs Mammalian Cathepsin L.
The mark [10] stands for this setting: Table 1, third line of each CAP-P2 block, read-out: Ki competitive inhibition measurements vs Mammalian Cathepsin K.
The mark [11] stands for this setting: Table 2, Mouse, read-out: Ki (μM) Mouse, Murine Cathepsin S.
[12] abbreviates: Table 2, Rat, read-out: Ki (μM) Rat, Rat Cathepsin S.

SMILES strings stand for the structures. Where two headings read alike, the source gives them in different places. Bounds are passed on as bounds.

As a reminder, the Ki is a dissociation constant, usually derived from enzyme kinetics or from competition with a known ligand. As usually defined, the bioavailability is dose-corrected exposure relative to a reference, in per cent.

Sequence of Mammalian Cathepsin S (P25774 115-331): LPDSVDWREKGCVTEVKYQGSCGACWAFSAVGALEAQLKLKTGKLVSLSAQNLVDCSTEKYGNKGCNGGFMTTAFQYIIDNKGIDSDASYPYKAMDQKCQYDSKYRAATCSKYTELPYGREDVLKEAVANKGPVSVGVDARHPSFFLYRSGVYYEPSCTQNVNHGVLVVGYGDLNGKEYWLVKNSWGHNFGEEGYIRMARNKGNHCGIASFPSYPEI
Sequence of Rat Cathepsin S (Q02765 113-330): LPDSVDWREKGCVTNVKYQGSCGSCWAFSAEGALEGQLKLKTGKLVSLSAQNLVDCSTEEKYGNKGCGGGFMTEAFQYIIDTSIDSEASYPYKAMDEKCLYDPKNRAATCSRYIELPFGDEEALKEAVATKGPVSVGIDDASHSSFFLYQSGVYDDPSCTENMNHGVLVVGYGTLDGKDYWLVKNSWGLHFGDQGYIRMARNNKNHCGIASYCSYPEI

As to `CC[C@@H]1OCC(=O)[C@H]1NC(=O)[C@H](CC(C)(C)C(C)C)NC(=O)c1ccoc1` [CAP8-Hybrid3/drawing 68, Furan-3-carboxylic acid[3,3,4-trimethyl-1S-(2S-ethyl-4-oxo-tetrahydrofuran-3-ylcarbamoyl)pentyl]amide], the inhibition constant Ki in data set [1] (setting [7]) is 0.015 µM; in data set [1] (setting [8]), 0.015 µM; in data set [1] (read-out: Ki mammalian cath S), 0.015 µM; in data set [2] (read-out: Ki murine cath S) it was 0.149 µM; in data set [3] (read-out: Ki rat cath S), 0.271 µM; in data set [4] (setting [9]), above 100 µM. Moreover, the inhibition constant (Ki) was above 100 µM in data set [4] (read-out: Ki cathepsin L) and 5.5 µM in data set [5] (read-out: Ki cathepsin K).

Take `CCCC[C@H](NC(=O)c1ccoc1)C(=O)N[C@H]1C(=O)CO[C@H]1C` [CAP8-L-Nle/drawing 70]: the inhibitory constant (Ki) in data set [1] (setting [7]) was 1 µM; in data set [4] (setting [9]), above 100 µM; in data set [5] (setting [10]) it was above 100 µM.

For `CC(C)CC[C@H](NC(=O)c1ccoc1)C(=O)N[C@@H]1C(=O)CO[C@@H]1C` [CAP8-L-hLeu/drawing 69], the values for the inhibition constant (Ki) in data set [1] (setting [7]), in data set [4] (setting [9]) and in data set [5] (setting [10]) were 0.97 µM, 38.9 µM and 16 µM, respectively.

With `CC(C)CC[C@H](NC(=O)c1ccoc1)C(=O)N[C@H]1C(=O)CO[C@H]1C` [CAP8-L-hLeu/drawing 70], the Ki was 0.45 µM in data set [1] (setting [7]), above 100 µM in data set [4] (setting [9]) and above 100 µM in data set [5] (setting [10]).

For `CC(C)CC[C@H](NC(=O)c1ccoc1)C(=O)N[C@@H]1C(=O)CO[C@H]1C` [CAP8-L-hLeu/drawing 71], the inhibitory constant (Ki) in data set [1] (setting [7]) was 0.37 µM; in data set [4] (setting [9]), above 100 µM; in data set [5] (setting [10]) it was above 100 µM.

On to `CC(C)CC[C@H](NC(=O)c1ccoc1)C(=O)N[C@@H]1COCC1=O` [CAP8-L-hLeu/drawing 73], for which the Ki turned out to be 0.44 µM in data set [1] (setting [7]), 61.2 µM in data set [4] (setting [9]) and 8.7 µM in data set [5] (setting [10]).

With `C[C@@H]1OCC(=O)[C@@H]1NC(=O)[C@H](CC(C)(C)C)NC(=O)c1ccoc1` [CAP8-L-tBu-Ala/drawing 70], the inhibition constant Ki is 0.2 µM in data set [1] (setting [7]), above 100 µM in data set [4] (setting [9]) and 19.9 µM in data set [5] (setting [10]).

As to `C[C@@H]1OCC(=O)[C@H]1NC(=O)[C@H](CC(C)(C)C)NC(=O)c1ccoc1` [CAP8-L-tBu-Ala/drawing 71, Furan-3-carboxylic acid[3,3-dimethyl-1S-(2S-methyl-4-oxo-tetrahydrofuran-3S-ylcarbamoyl)butyl]amide], the inhibitory constant (Ki) in data set [1] (setting [7]) was 0.1 µM; in data set [1] (setting [8]) it was 0.13 µM; in data set [2] (setting [11]), 0.1 µM; in data set [3] (setting [12]) it was 0.211 µM; in data set [4] (setting [9]) it was above 100 µM; in data set [5] (setting [10]) it was 7.3 µM. In addition, the bioavailability in data set [6] was 58%.

Regarding `CC(C)(C)CC(NC(=O)c1ccoc1)C(=O)NC1COCC1=O` [CAP8-L-tBu-Ala/drawing 72], the values for the Ki in data set [1] (setting [7]), in data set [4] (setting [9]) and in data set [5] (setting [10]) were 0.21 µM, 36.4 µM and 0.85 µM, respectively.

For the compound `CC(C)C[C@H](NC(=O)N1CCOCC1)C(=O)N[C@H]1C(=O)CO[C@H]1C` [CAP9-L-Leu/drawing 70], the values for the Ki in data set [1] (setting [7]), in data set [4] (setting [9]) and in data set [5] (setting [10]) were 0.8 µM, 7.9 µM and 4.8 µM, respectively.

Consider `CC(C)CC[C@H](NC(=O)N1CCOCC1)C(=O)N[C@@H]1C(=O)CO[C@@H]1C` [CAP9-L-hLeu/drawing 69], for which the values for the Ki in data set [1] (setting [7]), in data set [4] (setting [9]) and in data set [5] (setting [10]) were 0.78 µM, 48.7 µM and 34.3 µM, respectively.

On to `CC(C)CC[C@H](NC(=O)N1CCOCC1)C(=O)N[C@H]1C(=O)CO[C@H]1C` [CAP9-L-hLeu/drawing 70], for which the Ki in data set [1] (setting [7]) was 0.7 µM; in data set [4] (setting [9]), above 100 µM; in data set [5] (setting [10]) it was above 100 µM.

For the compound `CC(C)CC[C@H](NC(=O)N1CCOCC1)C(=O)N[C@@H]1C(=O)CO[C@H]1C` [CAP9-L-hLeu/drawing 71], the inhibition constant (Ki) was 0.52 µM in data set [1] (setting [7]), above 100 µM in data set [4] (setting [9]) and above 100 µM in data set [5] (setting [10]).

For `C[C@H]1OCC(=O)[C@H]1NC(=O)[C@H](CC(C)(C)C)NC(=O)N1CCOCC1` [CAP9-L-tBu-Ala/drawing 69], the Ki was 0.58 µM in data set [1] (setting [7]), 30.4 µM in data set [4] (setting [9]) and 4.2 µM in data set [5] (setting [10]).

For the compound `CCn1nc(C)cc1C(=O)N[C@@H](CC(C)C)C(=O)N[C@@H]1C(=O)CO[C@@H]1C` [CAP10-L-Leu/drawing 69], the inhibition constant Ki in data set [1] (setting [7]) turned out to be 1.3 µM; in data set [4] (setting [9]), 0.71 µM; in data set [5] (setting [10]) it was 3 µM.

Regarding `CCn1nc(C)cc1C(=O)N[C@@H](Cc1ccc(O)cc1)C(=O)N[C@H]1C(=O)CO[C@H]1C` [CAP10-L-Tyr/drawing 70], the inhibition constant (Ki) in data set [1] (setting [7]) was 0.34 µM; in data set [4] (setting [9]), 0.46 µM; in data set [5] (setting [10]) it was above 100 µM.

On to `CCn1nc(C)cc1C(=O)N[C@@H](Cc1ccc(O)cc1)C(=O)N[C@@H]1C(=O)CO[C@H]1C` [CAP10-L-Tyr/drawing 71], for which the Ki in data set [1] (setting [7]) was 4.1 µM; in data set [4] (setting [9]), 0.45 µM; in data set [5] (setting [10]), above 100 µM.

In the case of `CCn1nc(C)cc1C(=O)NC(Cc1ccc(O)cc1)C(=O)NC1COCC1=O` [CAP10-L-Tyr/drawing 72], the Ki in data set [1] (setting [7]) was 3.7 µM; in data set [4] (setting [9]) it was 0.1 µM; in data set [5] (setting [10]), above 100 µM.

As for `CCn1nc(C)cc1C(=O)N[C@@H](Cc1ccc(O)cc1)C(=O)N[C@@H]1COCC1=O` [CAP10-L-Tyr/drawing 73], the inhibitory constant (Ki) in data set [1] (setting [7]) was 3.7 µM; in data set [4] (setting [9]) it was 0.1 µM; in data set [5] (setting [10]), above 100 µM.

Consider `CC1OCC(=O)C1NC(=O)C(CC(C)(C)C)NC(=O)c1ccsc1` [CAP11-L-tBu-Ala/drawing 71], for which the Ki stood at 0.095 µM in data set [1] (setting [7]); 0.095 µM in data set [1] (setting [8]); 0.048 µM in data set [2] (setting [11]); 0.084 µM in data set [3] (setting [12]); 55.2 µM in data set [4] (setting [9]); 1.55 µM in data set [5] (setting [10]).

Turning to `CC[C@@H]1OCC(=O)[C@H]1NC(=O)[C@H](CC(C)(C)C)NC(=O)c1ccoc1` [drawing 79/drawing 78 X = O], the results for the inhibition constant Ki in data set [1] (setting [8]), in data set [2] (setting [11]) and in data set [3] (setting [12]) were 0.053 µM, 0.039 µM and 0.058 µM, respectively.
